Measured values from ChEMBL document CHEMBL1201862, “PubChem BioAssay data set” (2004).
Active and inactive are the calls of the source.

Experiments:
[1] = biological target: T1, Fatty acid synthase (Homo sapiens, UniProt P49327); assay: inhibition of human FAS-TE enzyme activity – biochemical, endpoint fluorescence intensity, uHTS hits, dose response (AID 624327); format: functional;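 also: fluorescence from hydrolysis of an O-methyl fluorescein acyl ester substrate by the enzyme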
[2] = biological target: T1, Fatty acid synthase; assay: inhibition of human FAS-TE enzyme activity – biochemical, kinetic fluorescence intensity, dose response (AID 624326); format: functional;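 also: rate of fluorescence rise from hydrolysis of a fluorogenic O-methyl fluorescein ester substrate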
[3] = biological target: T2, Calpain-2 catalytic subunit (Sus scrofa, UniProt P43367); assay: m-calpain protease blockers, concentration series – biochemical, fluorogenic peptide substrate, dose response (AID 1420); format: functional
T2 sequence (P43367 whole entry): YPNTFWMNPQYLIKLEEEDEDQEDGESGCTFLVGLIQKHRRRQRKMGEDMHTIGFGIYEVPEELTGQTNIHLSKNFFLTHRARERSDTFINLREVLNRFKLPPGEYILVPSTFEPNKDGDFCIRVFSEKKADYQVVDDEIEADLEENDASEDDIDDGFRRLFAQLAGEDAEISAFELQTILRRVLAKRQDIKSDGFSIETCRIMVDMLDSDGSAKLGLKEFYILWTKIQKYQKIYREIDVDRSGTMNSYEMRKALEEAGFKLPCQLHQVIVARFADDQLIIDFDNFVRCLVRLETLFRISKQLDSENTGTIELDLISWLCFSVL

[4] = biological target: T3, Heat shock factor protein 1 (Mus musculus, UniProt P38532); assay: decrease of HSF1-responsive luciferase luminescence – cell-based, NIH3T3, dose retest, confirmation (AID 2382); format: functional;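 also: NIH3T3 fibroblasts with HSF1-driven luciferase reporter stressed by proteasome inhibitor MG132; luminescence from HSF1-driven luciferase expression after 8 hours of MG132 stress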
T3 sequence (P38532 whole entry): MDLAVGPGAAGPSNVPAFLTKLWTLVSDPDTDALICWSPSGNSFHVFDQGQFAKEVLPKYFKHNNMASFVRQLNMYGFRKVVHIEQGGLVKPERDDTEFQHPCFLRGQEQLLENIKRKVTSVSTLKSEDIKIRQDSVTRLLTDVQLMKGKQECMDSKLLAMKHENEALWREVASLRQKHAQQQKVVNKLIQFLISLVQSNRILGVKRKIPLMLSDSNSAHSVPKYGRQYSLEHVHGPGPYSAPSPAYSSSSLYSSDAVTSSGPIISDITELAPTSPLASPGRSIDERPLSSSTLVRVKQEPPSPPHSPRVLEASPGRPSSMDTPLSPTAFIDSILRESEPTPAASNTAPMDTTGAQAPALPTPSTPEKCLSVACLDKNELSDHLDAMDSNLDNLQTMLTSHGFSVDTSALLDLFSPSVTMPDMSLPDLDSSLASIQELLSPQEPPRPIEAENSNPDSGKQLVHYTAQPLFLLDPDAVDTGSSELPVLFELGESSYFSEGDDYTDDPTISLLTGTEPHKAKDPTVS

[5] = viability of HCT116 lacking mutant beta-catenin – cell-based, human colon tumor, dose response (AID 1045); format: functional;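 also: HCT116 colon tumor cells with beta catenin knocked out; cells exposed to compound for 60 hours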
[6] = viability of PTEN-deleted HCT116 cells – cell-based, HCT116 PTEN knockout, dose response (AID 1047); format: functional;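 also: HCT116 colon tumor cells with PTEN knocked out; cells exposed to compound for 60 hours before readout; potency for loss of cell viability measured by luminescence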
[7] = Luminescence Cell-Based Dose Confirmation HTS to Identify Inhibitors of Platelet Dense Granule Release. [Related pubchem assays: 1663 (Primary HTS), 1678 (Summary of Project)]; format: functional
[8] = biological target: Luciferin 4-monooxygenase (Photinus pyralis, UniProt P08659); assay: inhibition of purified Photinus pyralis luciferase – biochemical, luminescence, dose response (AID 1891)
[9] = biological target: T4, Streptokinase A (Streptococcus pyogenes serotype M1, UniProt P10520); assay: viability-normalized secreted streptokinase activity reduction – plasminogen activation absorbance, OD405, dose response (AID 1914); format: functional, Streptococcus pyogenes M1 GAS;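 also: secreted streptokinase activity via plasminogen activation per viability signal from cell pellet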
T4 sequence (P10520 whole entry): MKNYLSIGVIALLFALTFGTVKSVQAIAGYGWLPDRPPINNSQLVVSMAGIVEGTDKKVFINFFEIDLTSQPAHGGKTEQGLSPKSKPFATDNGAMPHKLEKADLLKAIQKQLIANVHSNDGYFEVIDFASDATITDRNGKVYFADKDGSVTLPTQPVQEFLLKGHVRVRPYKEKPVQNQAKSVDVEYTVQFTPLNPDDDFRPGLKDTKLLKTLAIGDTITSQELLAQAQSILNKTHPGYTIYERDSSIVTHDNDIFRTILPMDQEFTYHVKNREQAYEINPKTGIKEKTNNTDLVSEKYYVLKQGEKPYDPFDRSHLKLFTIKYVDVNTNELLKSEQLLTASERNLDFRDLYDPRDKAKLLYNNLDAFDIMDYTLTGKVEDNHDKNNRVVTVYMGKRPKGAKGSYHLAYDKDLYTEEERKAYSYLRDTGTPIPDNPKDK

[10] = tested on: Streptococcus; assay: GAS UMAA2166 growth inhibition – luminescence, BacTiterGlo, counter-screen for streptokinase expression inhibitor project, dose response (AID 1915); format: functional, organism-based;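 also: potency for reduction of bacterial viability or growth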
[11] = tested on: Streptococcus sp. 'group A'; assay: Streptococcus pyogenes SK(-)GAS viability under kanamycin – luminescence, BacTiterGlo, confirmation, counter-screen for streptokinase expression inhibitor project, dose response (AID 1900); format: functional, organism-based
[12] = biological target: T5, Corticotropin-releasing factor receptor 2/Corticotropin-releasing factor-binding protein (Homo sapiens, UniProt P24387+Q13324); assay: activators of CRF receptor 2 with binding protein – uHTS hits, confirmation (AID 602473); format: functional; details: read-out: EC50_Mean
T5 sequence (Q13324 whole entry): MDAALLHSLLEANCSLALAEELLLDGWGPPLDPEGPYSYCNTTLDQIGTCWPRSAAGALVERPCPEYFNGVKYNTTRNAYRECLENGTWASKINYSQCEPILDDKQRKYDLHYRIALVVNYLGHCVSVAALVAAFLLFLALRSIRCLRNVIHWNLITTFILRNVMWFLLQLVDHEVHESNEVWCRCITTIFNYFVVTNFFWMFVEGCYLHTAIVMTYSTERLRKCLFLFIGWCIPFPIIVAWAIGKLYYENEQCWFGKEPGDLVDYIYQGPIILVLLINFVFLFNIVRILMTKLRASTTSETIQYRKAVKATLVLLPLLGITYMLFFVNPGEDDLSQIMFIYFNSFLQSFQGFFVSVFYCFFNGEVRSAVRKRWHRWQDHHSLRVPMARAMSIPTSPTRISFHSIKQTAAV
T5 sequence (P24387 whole entry): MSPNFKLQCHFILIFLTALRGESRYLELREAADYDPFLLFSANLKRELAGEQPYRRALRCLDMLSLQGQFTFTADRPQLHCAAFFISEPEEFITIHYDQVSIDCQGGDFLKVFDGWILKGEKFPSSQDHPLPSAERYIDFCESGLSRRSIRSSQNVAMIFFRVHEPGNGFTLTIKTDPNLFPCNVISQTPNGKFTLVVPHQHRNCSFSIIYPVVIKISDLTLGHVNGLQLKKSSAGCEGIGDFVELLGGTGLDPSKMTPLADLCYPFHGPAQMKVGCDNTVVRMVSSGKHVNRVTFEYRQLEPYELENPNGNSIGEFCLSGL

[13] = biological target: T6, Polyadenylate-binding protein 1 (Homo sapiens, UniProt P11940); assay: MLLE domain peptide-binding blockers, IC50 – biochemical, fluorescence polarization, FITC-PAM2 peptide, dose response (AID 602259); format: functional; details: read-out: IC50_Mean
[14] = biological target: T6, Polyadenylate-binding protein 1; assay: MLLE binding blockers, Cy5 peptide tracer – biochemical, fluorescence polarization, Cy5-PAM2 peptide, secondary, miRNA deadenylation inhibitor project, dose response (AID 602260); format: functional; details: read-out: IC50_Mean
[15] = Luminescence Cell-Based Dose Response HTS to Identify Inhibitors of 5'UTR Stem-Loop Driven Prion Protein mRNA Translation in H4 Neuroglioblastoma Cells. [Related pubchem assays: 1827 (Project Summary), 1813 (Primary HTS)]; format: functional
[16] = luciferase reporter signal suppression in cells – H4 neuroglioma cells, luminescence, dose response (AID 1990); format: functional, cell-based
[17] = alpha-synuclein stem-loop luciferase translation blockers – H4 neuroglioma cells, luminescence, confirmation (AID 1988); format: functional, cell-based
[18] = biological target: T7, RNA-binding protein pos-1 (Caenorhabditis elegans, UniProt G5EF15); assay: disruptors of C. elegans POS-1 RNA interaction – biochemical, fluorescence polarization, dose response (AID 1964);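 also: purified POS-1 fused to maltose binding protein made in E. coli; potency of compounds blocking POS-1 binding to fluorescent RNA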
T7 sequence (G5EF15 whole entry): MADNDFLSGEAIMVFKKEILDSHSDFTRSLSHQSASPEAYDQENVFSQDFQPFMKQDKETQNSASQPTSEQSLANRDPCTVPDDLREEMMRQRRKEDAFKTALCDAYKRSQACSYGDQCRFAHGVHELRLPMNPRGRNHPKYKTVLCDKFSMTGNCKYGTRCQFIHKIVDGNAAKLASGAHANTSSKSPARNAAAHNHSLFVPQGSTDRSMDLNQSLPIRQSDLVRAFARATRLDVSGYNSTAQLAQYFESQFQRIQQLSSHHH

[19] = biological target: T8, Zinc finger protein mex-5 (Caenorhabditis elegans, UniProt Q9XUB2); assay: potency of MEX-5 RNA-binding blockers – biochemical, C. elegans, fluorescence polarization, dose response (AID 1960)
T8 sequence (Q9XUB2 whole entry): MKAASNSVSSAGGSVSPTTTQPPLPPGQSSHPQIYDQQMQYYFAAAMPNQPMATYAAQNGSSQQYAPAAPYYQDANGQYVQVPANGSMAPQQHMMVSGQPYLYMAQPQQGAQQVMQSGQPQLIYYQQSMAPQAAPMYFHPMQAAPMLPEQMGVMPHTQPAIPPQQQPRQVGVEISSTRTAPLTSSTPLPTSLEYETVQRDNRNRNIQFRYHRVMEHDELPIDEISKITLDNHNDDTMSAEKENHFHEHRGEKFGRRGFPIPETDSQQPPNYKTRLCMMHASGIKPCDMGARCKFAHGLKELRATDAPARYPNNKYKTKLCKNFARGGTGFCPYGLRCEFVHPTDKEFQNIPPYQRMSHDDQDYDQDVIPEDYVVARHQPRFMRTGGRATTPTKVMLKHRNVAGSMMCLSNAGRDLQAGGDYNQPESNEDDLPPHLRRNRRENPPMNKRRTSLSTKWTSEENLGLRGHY

[20] = biological target: Cytochrome P450 2C9 (Homo sapiens, UniProt P11712)
Sequence of Cytochrome P450 2C9 (P11712 whole entry): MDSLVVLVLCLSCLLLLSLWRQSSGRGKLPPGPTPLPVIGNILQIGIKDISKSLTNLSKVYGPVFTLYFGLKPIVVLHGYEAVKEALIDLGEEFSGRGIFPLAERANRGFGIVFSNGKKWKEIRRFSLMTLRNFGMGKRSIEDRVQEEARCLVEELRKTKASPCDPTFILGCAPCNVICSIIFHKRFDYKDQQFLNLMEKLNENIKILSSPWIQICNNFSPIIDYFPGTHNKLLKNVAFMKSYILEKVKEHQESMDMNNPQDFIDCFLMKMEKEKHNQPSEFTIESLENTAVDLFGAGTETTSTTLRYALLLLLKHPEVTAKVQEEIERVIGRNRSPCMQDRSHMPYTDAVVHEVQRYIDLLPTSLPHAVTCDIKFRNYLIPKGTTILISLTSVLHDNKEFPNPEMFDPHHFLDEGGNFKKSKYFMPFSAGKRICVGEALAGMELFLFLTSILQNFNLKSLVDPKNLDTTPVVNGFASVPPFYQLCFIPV

T1 sequence (P49327 whole entry): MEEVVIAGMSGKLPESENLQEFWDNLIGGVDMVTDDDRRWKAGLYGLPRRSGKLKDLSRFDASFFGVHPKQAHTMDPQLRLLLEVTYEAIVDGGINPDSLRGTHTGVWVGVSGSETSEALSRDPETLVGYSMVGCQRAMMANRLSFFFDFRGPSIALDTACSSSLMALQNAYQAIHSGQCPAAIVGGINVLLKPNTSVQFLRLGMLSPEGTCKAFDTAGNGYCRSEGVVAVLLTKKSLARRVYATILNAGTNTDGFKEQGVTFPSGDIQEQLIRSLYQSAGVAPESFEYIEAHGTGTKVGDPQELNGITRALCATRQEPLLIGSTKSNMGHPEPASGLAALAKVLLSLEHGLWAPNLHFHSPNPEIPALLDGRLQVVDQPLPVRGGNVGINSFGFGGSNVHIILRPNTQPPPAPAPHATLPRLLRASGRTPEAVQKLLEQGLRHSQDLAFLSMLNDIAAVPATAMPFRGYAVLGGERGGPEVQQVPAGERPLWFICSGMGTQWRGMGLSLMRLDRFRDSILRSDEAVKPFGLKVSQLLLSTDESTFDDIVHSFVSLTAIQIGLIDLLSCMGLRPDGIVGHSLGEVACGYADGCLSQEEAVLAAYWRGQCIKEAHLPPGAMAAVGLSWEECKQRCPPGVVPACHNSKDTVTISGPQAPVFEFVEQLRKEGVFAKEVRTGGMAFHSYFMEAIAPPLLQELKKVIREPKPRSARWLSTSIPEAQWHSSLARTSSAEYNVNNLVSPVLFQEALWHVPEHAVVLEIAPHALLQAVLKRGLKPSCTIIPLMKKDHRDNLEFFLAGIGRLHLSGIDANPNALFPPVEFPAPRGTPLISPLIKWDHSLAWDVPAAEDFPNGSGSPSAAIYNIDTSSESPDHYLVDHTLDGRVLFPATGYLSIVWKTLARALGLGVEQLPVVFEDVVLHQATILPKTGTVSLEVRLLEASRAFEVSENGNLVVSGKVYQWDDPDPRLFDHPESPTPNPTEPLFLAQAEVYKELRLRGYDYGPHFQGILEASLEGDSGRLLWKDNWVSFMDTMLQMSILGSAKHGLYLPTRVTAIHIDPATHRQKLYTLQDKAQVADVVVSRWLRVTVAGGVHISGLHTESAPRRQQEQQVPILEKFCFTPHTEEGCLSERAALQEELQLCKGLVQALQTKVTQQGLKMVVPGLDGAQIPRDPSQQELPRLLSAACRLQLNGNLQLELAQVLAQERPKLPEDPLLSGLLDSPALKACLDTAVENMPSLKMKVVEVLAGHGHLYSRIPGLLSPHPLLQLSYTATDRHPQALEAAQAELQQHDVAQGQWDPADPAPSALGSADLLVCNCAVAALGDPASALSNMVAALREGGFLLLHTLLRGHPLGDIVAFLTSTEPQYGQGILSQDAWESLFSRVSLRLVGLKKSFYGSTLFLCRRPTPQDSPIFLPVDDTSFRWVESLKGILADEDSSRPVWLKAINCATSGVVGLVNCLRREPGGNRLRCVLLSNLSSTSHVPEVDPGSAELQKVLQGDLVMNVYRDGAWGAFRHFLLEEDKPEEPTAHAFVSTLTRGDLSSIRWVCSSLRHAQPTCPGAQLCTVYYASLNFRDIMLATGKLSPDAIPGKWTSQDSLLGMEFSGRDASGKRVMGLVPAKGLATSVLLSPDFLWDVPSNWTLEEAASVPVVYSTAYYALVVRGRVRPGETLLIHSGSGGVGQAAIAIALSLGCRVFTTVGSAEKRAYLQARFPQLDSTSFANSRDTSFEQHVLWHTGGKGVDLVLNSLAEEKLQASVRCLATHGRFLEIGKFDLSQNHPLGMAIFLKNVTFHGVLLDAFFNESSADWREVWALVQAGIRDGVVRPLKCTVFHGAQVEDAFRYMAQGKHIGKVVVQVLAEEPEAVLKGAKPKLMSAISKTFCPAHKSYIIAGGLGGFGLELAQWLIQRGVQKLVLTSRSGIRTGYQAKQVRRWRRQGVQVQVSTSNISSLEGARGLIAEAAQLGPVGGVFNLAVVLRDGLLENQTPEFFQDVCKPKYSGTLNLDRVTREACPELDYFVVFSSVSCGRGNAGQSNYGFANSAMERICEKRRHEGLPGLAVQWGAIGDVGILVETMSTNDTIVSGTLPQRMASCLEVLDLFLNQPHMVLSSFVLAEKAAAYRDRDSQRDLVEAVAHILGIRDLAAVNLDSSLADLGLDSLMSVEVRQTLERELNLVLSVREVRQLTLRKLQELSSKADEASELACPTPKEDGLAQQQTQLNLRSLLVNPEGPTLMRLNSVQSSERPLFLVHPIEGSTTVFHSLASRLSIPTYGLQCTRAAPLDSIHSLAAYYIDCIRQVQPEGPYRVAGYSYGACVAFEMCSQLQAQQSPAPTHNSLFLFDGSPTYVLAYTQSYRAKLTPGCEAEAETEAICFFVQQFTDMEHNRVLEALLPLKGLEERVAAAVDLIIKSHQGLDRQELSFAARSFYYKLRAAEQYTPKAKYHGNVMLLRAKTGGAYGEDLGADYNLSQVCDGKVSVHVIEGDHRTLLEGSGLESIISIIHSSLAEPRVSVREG
T6 sequence (P11940 whole entry, the tested form may be a part): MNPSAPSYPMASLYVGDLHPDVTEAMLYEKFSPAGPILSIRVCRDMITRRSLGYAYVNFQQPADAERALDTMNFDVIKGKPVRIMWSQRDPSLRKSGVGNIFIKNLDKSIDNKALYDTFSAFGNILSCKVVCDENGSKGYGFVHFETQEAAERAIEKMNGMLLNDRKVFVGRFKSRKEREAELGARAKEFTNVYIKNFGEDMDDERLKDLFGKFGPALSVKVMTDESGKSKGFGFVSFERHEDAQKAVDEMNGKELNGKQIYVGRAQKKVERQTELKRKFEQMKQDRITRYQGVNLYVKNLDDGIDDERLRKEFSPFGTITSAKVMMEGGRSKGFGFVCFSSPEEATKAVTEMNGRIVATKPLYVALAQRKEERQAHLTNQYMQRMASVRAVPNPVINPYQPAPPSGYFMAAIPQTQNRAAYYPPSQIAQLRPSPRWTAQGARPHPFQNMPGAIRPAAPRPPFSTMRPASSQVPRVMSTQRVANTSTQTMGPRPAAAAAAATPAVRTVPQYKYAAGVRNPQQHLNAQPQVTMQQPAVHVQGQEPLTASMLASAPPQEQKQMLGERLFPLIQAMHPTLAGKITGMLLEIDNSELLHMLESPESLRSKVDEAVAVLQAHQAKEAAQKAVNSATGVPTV
Sequence of Luciferin 4-monooxygenase (P08659 whole entry): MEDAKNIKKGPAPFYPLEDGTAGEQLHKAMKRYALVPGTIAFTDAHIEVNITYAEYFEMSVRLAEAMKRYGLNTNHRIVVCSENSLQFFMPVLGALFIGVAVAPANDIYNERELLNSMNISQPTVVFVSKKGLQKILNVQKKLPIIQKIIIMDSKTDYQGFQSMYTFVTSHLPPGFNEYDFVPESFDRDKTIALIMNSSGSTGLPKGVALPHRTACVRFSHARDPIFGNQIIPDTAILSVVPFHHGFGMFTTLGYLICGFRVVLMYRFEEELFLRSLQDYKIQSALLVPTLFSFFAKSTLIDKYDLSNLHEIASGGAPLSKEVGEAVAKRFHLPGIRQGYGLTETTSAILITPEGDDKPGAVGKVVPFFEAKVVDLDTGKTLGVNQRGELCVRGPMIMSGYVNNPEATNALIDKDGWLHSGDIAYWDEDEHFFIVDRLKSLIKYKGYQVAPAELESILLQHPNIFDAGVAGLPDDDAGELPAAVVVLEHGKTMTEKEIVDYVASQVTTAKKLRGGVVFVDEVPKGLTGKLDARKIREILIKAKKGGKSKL

O=C(COC(=O)C1CCCCC1)Nc1cc([N+](=O)[O-])ccc1F
IC50 [1]: 7.45 µM (active)
IC50 [2]: 8.3 µM (active)
IC50 [3]: > 50 µM (not active)

CCCNC(=O)N1CCCC(C(=O)c2cccc(Cl)c2)C1 (centres undefined)
EC50 [4]: > 195 µM (not active)

COc1ccc(-c2nn(-c3ccccc3)cc2/C=C/C(=O)O)cc1[N+](=O)[O-]
IC50 [1]: 12.1 µM (active)
IC50 [2]: 13.6 µM (active)

CCOC(=O)c1cc2c(=O)n3cccc(C)c3nc2n(C)c1=N
EC50 [5]: 4.97 µM (active)
EC50 [6]: 6.72 µM (active)

CCn1cc(C(=O)NCc2ccc(Cl)cc2)c(=O)c2cc(S(=O)(=O)N(C)C)ccc21
IC50 [1]: 9.03 µM (active)
IC50 [2]: 8.74 µM (active)

Cc1cc(=O)oc2cc(OCCSCCN3CCCC3)ccc12
EC50 [7]: > 112 µM (not active)
EC50 [8]: > 112 µM (not active)

CCN1C(=O)C(CC(=O)Nc2ccc(OC)cc2)N(Cc2ccc3c(c2)OCO3)C1=S (centres undefined)
EC50 [4]: > 195 µM (not active)

Nc1c(NC(=O)CC[n+]2ccccc2)cccc1[N+](=O)[O-]
EC50 [4]: 7.93 µM (active)

CC(C)(C)N(Cc1ccccc1)C(=O)COC(=O)c1cccc([N+](=O)[O-])c1
IC50 [1]: 4.39 µM (active)
IC50 [2]: 2.97 µM (active)

CCCNS(=O)(=O)c1ccc(OCC(=O)N2CCN(C)CC2)cc1
EC50 [4]: > 195 µM (not active)

CCCc1nc2sc3c(c2c(=O)n1NC(=O)CCC(=O)OC)CCCC3
EC50 [7]: > 112 µM (not active)
EC50 [8]: > 112 µM (not active)

O=C(CSc1ncnc2c1nnn2Cc1ccccc1)NC1CCCCC1
IC50 [1]: 24.3 µM (inactive)
IC50 [2]: 23.6 µM (inactive)

CCOc1ccc(NC(=O)c2ccc3c(=O)n(-c4ccc(OC)cc4OC)c(=S)[nH]c3c2)cc1
EC50 [9]: > 150 µM (not active)
EC50 [10]: 12.4 µM (active)
EC50 [4]: > 195 µM (not active)
EC50 [11]: 7.86 µM (active)

CN(C(=O)COC(=O)c1cc(O)nc2ccccc12)c1c(N)n(Cc2ccccc2)c(=O)[nH]c1=O
EC50 [4]: > 195 µM (not active)

N#C/C(=C\c1ccccc1[N+](=O)[O-])C(=O)NC1CCCCC1
EC50 [12]: > 53 µM (inactive)
IC50 [13]: > 66 µM (inactive)
IC50 [14]: > 66 µM (inactive)

Cc1ccc(Cl)cc1N1CCN(C(=O)c2cn(C)c(=O)c3c2c2ccccc2n3C)CC1
EC50 [15]: 20.5 µM (active)
EC50 [9]: 9.73 µM (active)
EC50 [16]: 12.4 µM (active)
EC50 [10]: 22.8 µM (active)
EC50 [17]: 11.4 µM (active)
EC50 [5]: 4.17 µM (active)
EC50 [11]: 3.51 µM (active)
EC50 [6]: 3.36 µM (active)

Cn1cccc1/C=C1\C(=O)NC(=O)N(CCC2=CCCCC2)C1=O
EC50 [18]: 230 µM (inconclusive)
EC50 [19]: 35.6 µM (inconclusive)
EC50 [5]: 82.1 µM (active)
EC50 [6]: 67.2 µM (active)

Cc1ccc(C)c(S(=O)(=O)N2CCN(C(=O)Cc3ccc(S(=O)(=O)N4CCOCC4)s3)CC2)c1
IC50 [1]: 6.49 µM (active)
IC50 [2]: 7.72 µM (active)

CC(=O)c1cccc(-c2ccnc3c2CC(C(=O)Nc2ccc(C(C)C)cc2)O3)c1 (centres undefined)
IC50 [1]: 10.8 µM (active)
IC50 [2]: 6.77 µM (active)

CCC(/N=c1\cc(-c2ccc(OC)c(OC)c2)oc2ccc(C)cc12)C(=O)O (centres undefined)
EC50 [4]: > 195 µM (not active)

Cc1cnn(-c2cc(N/N=C/c3ccccc3F)ncn2)c1
EC50 [5]: 21 µM (active)
AC50 [20]: 1.26 µM (inconclusive)
EC50 [6]: 12.7 µM (active)
